Test results: patent US6767522B1, “Method for leaching sulfide-containing materials with microorganisms and use of sulphur-containing amino acids in leaching with microorganisms” (Hahn-Meitner-Institut Berlin GmbH, priority 1998, dated 2004)

Tested on: Thiobacillus ferrooxidans
Assay: Bacterial dissolution of pyrite layers with Thiobacillus ferrooxidans in the presence of cysteine
Conditions: for lag phase of bacterial pyrite dissolution: pH 1.6; for pyrite corrosion level (or dissolution rate): pH 1.6, S^o-FeS2 pyrite layer 100 nm, after 10-11 days
Protocol: Each time, 1 cm^3 of pyrite layers 100 nm in thickness (referred to as S^o-FeS2), prepared according to Example 1 using elemental sulfur as precursor, was added with 300 μl of aqueous solutions or suspensions of Thiobacillus ferrooxidans cells and cysteine at concentrations of from 8×10^−2 to 8×10^−5 M in an in situ pyrite culture chamber. The pH value of the solutions was adjusted to 1.6 using Tuovinen buffer (for 1 liter: KH2PO4=0.4 g, MgSO4.7H2O=0.4 g, (NH4)2SO4=0.4 g, […], with no iron(II) being added) [cf., Tuovinen and Kelly, Arch. Mikrobiol. 88, 285-298 (1973)].
FIG. 1 is a plot of the pyrite corrosion level (or dissolution rate) [%] as a function of time [days] for the various solutions.

## N[C@@H](CS)C(=O)O [cysteine]
8×10^−4 M cysteine in solution
  lag phase of bacterial pyrite dissolution: no longer occurs
  pyrite corrosion level (or dissolution rate): 100%
8×10^−5 M cysteine in solution
  lag phase of bacterial pyrite dissolution: no longer occurs
  pyrite corrosion level (or dissolution rate): 100%
